“Also recorded” adds a separate entry of the source.
Assays:
THP-1 cells = assay: Cytokine induction with dominant negative MyD88 or TRIF constructs in THP-1 macrophages; assay type: cell-based, human; settings: for induction of TRIF-dependent cytokines when TRIF is knocked down: dominant negative TRIF construct
Method: THP-1 cells are seeded in 12-well plates (5×10^5 cells/well) and incubated in 0.5 mL RPMI 1640 (ATCC) with 100 U/mL penicillin/100 ug/mL streptomycin (Sigma) with 20 ng/mL phorbol mystyric acid (PMA) (InvivoGen) for differentiation into macrophages. After differentiation of the THP-1, the media is changed to THP-1 media with 5 ng/mL PMA and the cells are transiently transfected with 0.5 μg/well of the pDeNy-hMyD88/LacZ, pDeNy-TRIF/LacZ, or pUNO-mcs (control)/LacZ plasmids and Fugene 6 transfection reagent for 48 h. Media is exchanged for fresh media and the cells are then stimulated with the indicated concentrations of TLR4 agonists for 14 hours. Harvested supernatants are assayed for cytokine levels by multiplex sandwich ELISA (R&D Systems) with the luminex platform. Control wells are assayed for transfection efficiency using the Invivogen LacZ Quantitation Kit.

[1] = tested on: human PBMC-derived macrophages; assay: Cytokine/chemokine induction in the presence of the endocytosis inhibitor Dynasore; assay type: cell-based; settings: with Dynasore; for MyD88-dependent MIP-1α induction under inhibition of endocytosis: relative to non-treated cells
human primary monocytes = assay: Western blot of human primary monocytes (IRAK-1, IRF-3); assay type: cell-based; settings: Western blot time course
Method: (§1) For Western blot and phospho-Western blot protein analysis, cells are lysed with Cell Lysis Buffer (Cell Signaling Technology, Danvers, Mass.) with Protease Inhibitor Cocktail (Sigma, St. Louis Mo.). Western Blot on PVDF membranes (Millipore) is performed using standard methods. Bands are detected with ECL Advance Western Blot kit (GE Healthcare, Piscataway, N.J.). Secondary Anti-Rabbit HRP antibody is obtainable from KPL, (Gaithersburg, Md.). Anti-βactin, anti-IRF-3, anti-phospho-IRF-3 (Ser396) and anti-IRAK1 antibodies are obtained from Cell Signaling Technology (Danvers, Mass.).
Degradation of the Serine/Threonine Kinase, IRAK-1, occurs downstream of MyD88-dependent TLR4 signaling (Hatao et al, 260-64; Neumann et al. 1089-94), while TRIF-dependent TLR4 signaling results in IRF-3 activation (Yamamoto et al. 6668-72; Yamamoto et al. 640-43). Here, human primary monocytes are stimulated with either CRX-547 or CRX-527 for the indicated times, and cellular lysates are analyzed by Western Blot for the levels of the MyD88 pathway-activated kinase, IRAK-1, and the TRIF pathway-activated transcription factor, IRF-3 (phospho-IRF-3 and total IRF-3). The levels of β-actin is used as the loading control.

MM6 cells = assay: Western blot of MM6 cells (IκBα, IRAK4, p38, IRF3); assay type: cell-based, human; settings: for IRAK-4 / total IκBα / TRIF-mediated signaling proteins (phospho-p38, total p38, IRF3, phospho-IRF3): 10 ng/ml; for TRIF-mediated signaling proteins (phospho-p38, total p38, IRF3, phospho-IRF3): difference between the two AGPs
Method: as §1
The role of MAPK signaling molecules in MyD88 versus TRIF signaling after TLR4 ligation is complicated because p38 is implicated in both pathways, however a role for p38 phosphorylation as an indicator of the TRIF pathway is indicated in the literature. […] To determine whether the phosphorylation state of p38 is different after stimulation with CRX-527 versus CRX-547, western blot analysis is performed on lysates from MM6 cells.
MAPK pathways and downstream transcription factors are differentially regulated by TLR agonists. Degradation of IRAK4 and IκBα are indicative of MyD88 after TLR4 signaling (Hatao et al. 260-64; Neumann et al. 1089-94), while TRIF-mediated TLR4 signaling results in IRF3 activation (Yamamoto et al. 6668-72; Yamamoto et al. 640-43). MM6 cells are stimulated with either CRX-547 or CRX-527 (10 ng/ml) for the indicated time. Cellular lysates are collected and Western Blot analysis of the MyD88 pathway proteins, Phospho-IκBα, total IκBα, IRAK4, and TRIF pathway proteins, phospho-p38, total IRF3 and phospho IRF3 is performed using βactin as the loading control.

[2] = Induction of serum cytokines/chemokines in mice; assay type: in vivo, mouse; settings: C57BL/6 mice, 2 or 6 hours post injection
Method: Female BALB/c or C57B1/6 mice are obtained from Charles River Laboratories, USA, and are 7 to 9 weeks of age when the experiments are initiated. Mice are injected intraperitoneally with 200 uL of agonist in vehicle (0.2% glycerol) or vehicle alone. Serum samples are drawn at 2 or 6 hours post-injection and are tested for induction of cytokines/chemokines by multiplex sandwich ELISA (Invitrogen) on the Luminex platform. All animals are used in accordance with guidelines established by the Public Health Service and the Institutional Animal Care and Use Committee at GlaxoSmithKline Biologicals, Hamilton, Mont.
To ensure that this response is not specific to BALB/c mice, a similar test of serum cytokine induction in C57BL/6 mice is carried out. (FIG. 16). The kinetics (induction at 2 or 6 hours post injection) and magnitude of cytokine induction are similar for CRX-527 and CRX-547 for both MyD88-dependent (TNFα, IL-10) and TRIP-dependent (RANTES, IP-10, MIG) cytokines/chemokines, although the relative induction by CRX-547 is slightly less for select cytokines than that seen in BALB/c (not shown). […]

[3] = target: T1, human TLR4 and murine MD-2 (UniProt O00206+Q9JHF9); assay: NFκB promoter activity in HEK293 cells with chimeric human TLR4 and murine MD-2; assay type: cell-based, human/mouse; settings: HEK293 huTLR4/muMD-2
T1 construct: expressed in transfected cells; host or cells: HEK293

[4] = tested on: human PBMC-derived monocytes; assay: Cytokine/chemokine gene expression (qPCR time course) in human PBMC-derived monocytes; assay type: cell-based; settings: for time of highest IFNβ gene induction: qPCR time course
Text: Initial experiments include time course analysis of MyD88- and TRIF-dependent cytokine gene induction using qPCR.

PBMCs from BALB/c mice = assay: Cytokine induction in PBMCs from BALB/c mice; assay type: cell-based, mouse; settings: CRX-527 versus CRX-547; experiment performed once
Method: To determine whether PBMCs from mouse blood have similar profiles of MyD88 cytokines after CRX-527 or CRX-547 treatment, commercially available blood from BALB/c mice is tested with CRX-527 or CRX-547. (FIG. 24), Levels appear to be similar between the two groups tested.

RAW264.7 cells = assay: Western blot of signaling proteins in RAW264.7 cells; assay type: cell-based, mouse; settings: 10 ng/ml, PMA pre-activated
Method: as §1
To determine whether the phosphorylation (activation) status of key protein signaling molecules in the TRIF versus MyD88 in RAW264.7 cells, cells are pre-activated with 10^−7M PMA) then stimulated with 10 ng/ml of the AGPs. Cellular lysates are prepared at 0, 15 m, 30 m, 45 m, 60 m, 120 m, 240 m, Similar to results in MM6 cells, IκBα degradation is faster after stimulation with CRX-527 compared to CRX-547 (FIG. 29). […] The increased reponsiveness of these cello could be due to the pre-activation with PMA, known to increase the maturation state of monocytic cells. CRX-547 induces expression of Phospho-IκBα and Phospho-IRF3. IRF3 is induced through TRIF mediated signaling. The amount of total IRF3 protein is also higher in the cells treated with CRX-547.

[5] = dominant negative MyD88 construct

T1 sequence (O00206 24-839): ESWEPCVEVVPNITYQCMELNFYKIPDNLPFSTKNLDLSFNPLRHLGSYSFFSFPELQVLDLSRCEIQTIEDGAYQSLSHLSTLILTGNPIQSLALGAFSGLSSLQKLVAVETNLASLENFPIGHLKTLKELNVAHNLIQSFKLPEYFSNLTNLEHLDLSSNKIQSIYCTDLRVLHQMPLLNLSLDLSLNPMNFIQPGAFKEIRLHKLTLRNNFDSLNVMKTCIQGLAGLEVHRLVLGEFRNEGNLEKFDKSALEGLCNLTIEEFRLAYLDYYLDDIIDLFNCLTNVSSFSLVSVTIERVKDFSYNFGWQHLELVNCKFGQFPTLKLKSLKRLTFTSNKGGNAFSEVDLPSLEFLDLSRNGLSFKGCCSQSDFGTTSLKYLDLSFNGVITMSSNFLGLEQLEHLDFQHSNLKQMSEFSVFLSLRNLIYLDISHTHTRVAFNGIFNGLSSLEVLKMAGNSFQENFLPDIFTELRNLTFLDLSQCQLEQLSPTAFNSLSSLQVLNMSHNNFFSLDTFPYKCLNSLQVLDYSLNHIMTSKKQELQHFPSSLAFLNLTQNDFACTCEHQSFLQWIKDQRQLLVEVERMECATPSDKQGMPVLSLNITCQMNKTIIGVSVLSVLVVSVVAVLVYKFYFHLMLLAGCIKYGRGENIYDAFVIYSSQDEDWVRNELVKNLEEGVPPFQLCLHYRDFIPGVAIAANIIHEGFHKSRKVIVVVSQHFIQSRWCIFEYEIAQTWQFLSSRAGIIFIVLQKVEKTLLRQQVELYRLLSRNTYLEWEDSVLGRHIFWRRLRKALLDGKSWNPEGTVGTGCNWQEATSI
T1 sequence (Q9JHF9 19-160): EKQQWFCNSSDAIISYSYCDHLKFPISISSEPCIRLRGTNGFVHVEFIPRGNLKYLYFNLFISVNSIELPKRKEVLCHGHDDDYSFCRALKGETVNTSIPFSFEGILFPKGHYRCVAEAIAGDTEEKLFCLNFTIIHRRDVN

Row | SMILES | induction of MyD88-dependent cytokine (TNFα) when MyD88 signaling is inhibited (THP-1 cells; [5]) | induction of TRIF-dependent cytokine RANTES when MyD88 signaling is inhibited (THP-1 cells; [5]) | induction of TRIF-dependent cytokines when TRIF is knocked down (THP-1 cells) | TRIF-dependent RANTES induction under inhibition of endocytosis [1] | MyD88-dependent MIP-1α induction under inhibition of endocytosis [1] | IRAK-1 level (MyD88 pathway) (human primary monocytes) | IRAK-4 (MM6 cells) | total IκBα (MM6 cells) | TRIF-mediated signaling proteins (phospho-p38, total p38, IRF3, phospho-IRF3) (MM6 cells) | phosphorylation state of p38 (MM6 cells; compared to CRX-547) | kinetics and magnitude of serum cytokine induction (TNFα, IL-10, RANTES, IP-10, MIG) [2] | induction of promoter activity, CRX-527 versus CRX-547 [3] | MyD88-dependent cytokine/chemokine gene expression [4] | TRIF-dependent cytokine/chemokine gene expression [4] | time of highest IFNβ gene induction [4] [h] | MyD88 cytokine levels (PBMCs from BALB/c mice) | IκBα degradation (RAW264.7 cells; CRX-527 compared to CRX-547) | IRF3 phosphorylation (RAW264.7 cells; performed once) | IκBα phosphorylation (RAW264.7 cells; performed once) | amount of total IRF3 protein (RAW264.7 cells; performed once)
1 | CCCCCCCCCCCC(CC(=O)NC(COC1OC(CO)C(OP(=O)(O)O)C(OC(=O)CC(CCCCCCCCCCC)OC(=O)CCCCCCCCC)C1NC(=O)CC(CCCCCCCCCCC)OC(=O)CCCCCCCCC)C(=O)O)OC(=O)CCCCCCCCC.CCN(CC)CC (centres unmarked) [CRX-527] | significantly reduced | only slightly reduced | reduced to a similar extent | inhibits | increases slightly | rapid decrease; also recorded: greater degradation | rapid decrease; also recorded: greater degradation | rapid decrease | little or difference | slight increase | similar | large relative difference | greater | greater | 1 | similar | faster | – | – | –
2 | CCCCCCCCCCCC(CC(=O)NC(COC1OC(CO)C(OP(=O)(O)O)C(OC(=O)CC(CCCCCCCCCCC)OC(=O)CCCCCCCCC)C1NC(=O)CC(CCCCCCCCCCC)OC(=O)CCCCCCCCC)C(=O)O)OC(=O)CCCCCCCCC.CCN(CC)CC (centres unmarked) [CRX-547] | unaffected | – | reduced to a similar extent | inhibits | increases slightly | delayed and reduced degradation | delayed and less degradation | delayed and less degradation | little or difference | – | similar | large relative difference | – | – | 1 | similar | – | higher degree | higher degree | higher

Reference: patent publication US8629116B2, “Method for inducing a TRIF-bias” (priority 2008, dated 2014)
